A short description of data set [1]: Radiolabeled NAC tissue delivery by route of administration. The note with it: for 14C-NAC found in brain: Example 10. The format is in vivo, rat. The protocol: Radiolabeled NAC in combination with unlabeled low dose NAC (140 mg/kg) or high dose NAC (1200 mg/kg) was administered to rats with the following routes of infusion: i.v. (open bars), intra-arterially into the right carotid artery (striped bars), intra-arterial via the left carotid artery with left internal artery occlusion (aortic infusion) (black bars), and intra-arterial (right carotid) with BBBD (cross hatched bars). Radiolabel in tissue homogenates is expressed as the mean and standard error of the % administered dose of 14C-NAC per gram of tissue (n=3 rats per group). Significant differences from i.v. delivery are indicated by *P<0.05 and **P<0.001.
In this experiment, radiolabeled NAC was administered to rats by three different routes. Liver and kidney tissue, in addition to the ipsilateral and contralateral hemispheres of the brain, were analyzed for radioactivity. Results are shown as the percent of the injected radioactive dose per gram of tissue. Route indicates intravenous (i.v.), intra-arterial into the right carotid artery (i.a.), or left carotid with internal artery occlusion and aortic infusion (left carotid aortic infusion). The left carotid aortic infusion intra-arterial method uses descending aorta placement of the catheter tip and NAC administration.
This example tested whether the inventive method for intra-arterial infusion (via the left carotid artery, with left internal artery occlusion) could reduce brain delivery of NAC and increase systemic delivery. Brain delivery was 0.04% of the injected dose with the inventive method (n=2).
The method of administration of NAC and its biodistribution was tested. Intra-arterial infusion retrograde via the left external carotid artery, with transient left internal artery occlusion, was evaluated as a mechanism to essentially perfuse via the descending aorta with limited delivery to the brain. […] The serum concentration of NAC 10 min after administration of 1200 mg/kg was 2.4 0.6 mg/ml (n=6) as determined by radiolabel remaining in the blood.

The test system of a further data set is rats. Description: Blood counts after chemotherapy with or without NAC by left carotid aortic infusion (Example 1). The format is in vivo, rat. The source says: The rats were set up for drug administration by pushing a catheter forward past the junction of the external and internal carotid arteries (toward the aorta), and temporarily sealing off the internal carotid for good measure so nothing goes to the brain (left carotid aortic infusion method). In patients where entry is via the femoral artery and the catheter is threaded through the aorta to get to the brain in the first place, one would just pull the catheter back to the aorta to do the NAC infusion.
Rats were treated with carboplatin (200 mg/m^2), melphalan (10 mg/m^2) and etoposide phosphate (100 mg/m^2). In the NAC animals, NAC was infused with the left carotid aortic infusion method immediately after the chemotherapeutic agents, at concentrations ranging from 400–1200 mg/M^2. White blood cells (wbc) and platelets (plt) were counted at baseline before the experiment and at 6 and 9–11 days after treatment with the chemotherapeutic agents. […] Counts are in 1000s per μl blood. […] The lack of white blood cell effect was not repeated as there were significant effects shown below.
The data in table 2 show additional results. […] White blood cells (wbc) and platelets (plt) were counted at baseline before the experiment and at 6 and 9 days after treatment with the chemotherapeutic agents.

The test system of the next data set is rat. The protocol:
FIG. 9 represents tests showing the effect of NAC route of administration on mortality+/−BSO. A Kaplan-Meier product limit analysis was used to evaluate the mortality due to chemoprotection with NAC. Rats were treated with or without BSO (10 mg/kg i.p. b.i.d.×3, black bars) prior to treatment with chemotherapy (Carboplatin 200 mg/m2, etoposide phosphate 100 mg/m2, melphalan 10 mg/m2). Chemoprotection consisted of NAC (1200 mg/m2) or NAC (1000 mg/m2) plus STS (8 g/m2) given either i.v. (n=17 BBSO, n=8+BSO) or by aortic infusion (n=19 BBSO, n=28+BSO).
A dose escalation of NAC was performed in the rat.
The toxicity of NAC was determined when infused for bone marrow protection.

[2] abbreviates: route left carotid aortic infusion, n=2.

For `CC(=O)N[C@@H](CS)C(=O)O` [NAC, N-acetylcysteine], in data set [1] (10 min after administration of 1200 mg/kg, radiolabel remaining in the blood, n=6), the serum concentration of NAC came out at 2.4 mg/mL. In addition, the “14C-NAC found in brain” value in data set [1] (aortic infusion) is on record as “minimized brain delivery”; in data set [1] (i.v.), “negligible amounts”; in data set [1] (intra-arterial, right internal carotid artery) it was “high levels of radiolabel in the right cerebral hemisphere”. Further, the “liver and kidney delivery with aortic infusion” value in data set [1] (high dose (1200 mg/kg) NAC, data not shown) is “no change in liver and kidney delivery”; in data set [1] (low dose of NAC (140 mg/kg)) it was “decreased liver delivery and increased kidney delivery”. In addition, the Brain delivery in data set [1] (intra-arterial infusion via the left carotid artery with left internal artery occlusion, n=2) was 0.04 % of the injected dose. In addition, the left hem is recorded as 0.03% of the injected radioactive dose per gram of tissue in data set [1] (route i.a. into the right carotid artery, n=3); 0.02% of the injected radioactive dose per gram of tissue in data set [1] (route i.v., left brain hemisphere, n=2); 0.04% of the injected radioactive dose per gram of tissue in data set [1] (setting [2]). Also, the kidney in data set [1] (route i.v., n=2) was 0.72% of the injected radioactive dose per gram of tissue; in data set [1] (setting [2]) it was 1.42% of the injected radioactive dose per gram of tissue. Besides, the liver in data set [1] (route i.v., n=2) is recorded as 0.59% of the injected radioactive dose per gram of tissue; in data set [1] (setting [2]), 0.29% of the injected radioactive dose per gram of tissue. The right hem in data set [1] (setting [2]) is reported as 0.04% of the injected radioactive dose per gram of tissue. Also, the “platelet recovery from chemotherapy” value in the data set on rats is “recovered from chemotherapy faster”. In the data set with rat (1200 mg/kg by aortic infusion 30 minutes prior to chemotherapy, without BSO, 12 animals), the mortality and toxicity entry is given as “no mortality nor any evidence of toxicity”. Besides, the bone marrow protection entry in the data set on rat (140–800 mg/kg i.v. immediately after chemotherapy, n=4) is recorded as “no detectable bone marrow protection”. The toxic doses result with rat (dose escalation, n=3) is listed as “above 1200 mg/kg”. Also, the “mortality by route of administration” value with rat (i.v. versus aortic infusion, Kaplan-Meier, P=0.0014) is listed as “i.v. administration significantly more toxic than aortic infusion”. For the same compound, the toxicity entry with rat (rat, in vivo, 1200 mg/kg) is reported as “no toxicity”.

Values taken from patent US7022315B2, “Administration of a thiol-based chemoprotectant compound” (Oregon Health & Science University, priority 2000, dated 2006).
